Measured values reported in US20100092526A1, “NANOEMULSION THERAPEUTIC COMPOSITIONS AND METHODS OF USING THE SAME” (NanoBio Corporation, priority 2008, published 2010).
Like-named read-outs stand apart in the source and are kept apart here.

Legend:
Burkholderia cepacia = assay: MIC/MBC of nanoemulsions against gram-negative isolates (CLSI, alamar blue); format: cell-based; conditions: Burkholderia cepacia (n = 5), nanoemulsions in the presence of 5 mM EDTA
[1] = test system: Stenotrophomonas maltophilia; assay: as above; format: cell-based; conditions: Stenotrophomonas maltophilia (n = 5); nanoemulsions in the presence of 5 mM EDTA
Pseudomonas aeruginosa [2] = assay: as above; format: cell-based; conditions: Pseudomonas aeruginosa (n = 5)
Acinetobacter baumannii [3] = assay: as above; format: cell-based; conditions: Acinetobacter baumannii (n = 5)
Escherichia coli = assay: as above; format: cell-based; conditions: Escherichia coli (n = 5)
[4] = test system: Stenotrophomonas maltophilia; assay: MIC/MBC against CF isolates (CLSI, alamar blue); conditions: for MBC / MIC: Stenotrophomonas maltophilia
Proteus mirabilis = assay: MIC/MBC of nanoemulsions against gram-negative isolates (CLSI, alamar blue); format: cell-based; conditions: Proteus mirabilis (n = 5)
Pseudomonas aeruginosa [5] = assay: MIC/MBC against CF isolates (CLSI, alamar blue); conditions: Pseudomonas aeruginosa
Klebsiella pneumoniae = assay: MIC/MBC of nanoemulsions against gram-negative isolates (CLSI, alamar blue); format: cell-based; conditions: Klebsiella pneumoniae (n = 5)
Burkholderia cenocepacia = assay: MIC/MBC against CF isolates (CLSI, alamar blue); conditions: for MBC / MIC: Burkholderia cenocepacia
Acinetobacter baumannii [6] = assay: MIC/MBC against clinical isolates (CLSI, alamar blue)
[7] = nanoemulsions in the presence of 5 mM EDTA
[8] = nanoemulsions in the presence of 5 mM EDTA, in µg/mL
[9] = CF Stenotrophomonas isolate NB41
[10] = CF Stenotrophomonas isolate NB42
[11] = CF Stenotrophomonas isolate NB43
[12] = CF Stenotrophomonas isolate NB44
[13] = CF Stenotrophomonas isolate NB45
[14] = CF Stenotrophomonas isolate Steno 1
[15] = CF Stenotrophomonas isolate Steno 2
[16] = CF Stenotrophomonas isolate Steno 3
[17] = CF Stenotrophomonas isolate Steno 4
[18] = CF Stenotrophomonas isolate Steno 6
[19] = CF Stenotrophomonas isolate Steno 8
[20] = Stenotrophomonas, each drug alone
[21] = Acinetobacter baumannii, Acinetobacter isolate NB31
[22] = Acinetobacter baumannii, Acinetobacter isolate NB32
[23] = Acinetobacter baumannii, Acinetobacter isolate NB33
[24] = Acinetobacter baumannii, Acinetobacter isolate NB34
[25] = Acinetobacter baumannii, Acinetobacter isolate NB35
[26] = Acinetobacter baumannii, Acinetobacter isolate NB36
[27] = Acinetobacter baumannii, Acinetobacter isolate NB37
[28] = Acinetobacter baumannii, Acinetobacter isolate NB38
[29] = Acinetobacter baumannii, Acinetobacter isolate NB39
[30] = Acinetobacter baumannii, Acinetobacter isolate NB40

NC[C@H]1O[C@H](O[C@H]2[C@H](O)[C@@H](O[C@H]3O[C@H](CO)[C@@H](O)[C@H](N)[C@H]3O)[C@H](N)C[C@@H]2N)[C@H](N)C[C@@H]1O [Tobramycin]
8 µg/mL: MBC (Pseudomonas aeruginosa [5]; CF Pseudomonas isolate NB8) | MBC (Pseudomonas aeruginosa [5]; CF Pseudomonas isolate NB9) | MBC (Pseudomonas aeruginosa [5]; CF Pseudomonas isolate NB12) | MBC (Pseudomonas aeruginosa [5]; CF Pseudomonas isolate NB15) | MBC (Pseudomonas aeruginosa [5]; CF Pseudomonas isolate NB20) | MBC (Pseudomonas aeruginosa [5]; read-out: MBC 50, 20 CF Pseudomonas isolates) | MBC (Pseudomonas aeruginosa [5]; read-out: MBC 50, second MBC 50 line of the summary, Stenotrophomonas, values equal those of the CF Pseudomonas isolates) | MBC (Acinetobacter baumannii [6]; [23])
0.25-16: MIC Range (Escherichia coli; [8]) | MIC Range (Klebsiella pneumoniae; [8])
4 µg/mL: MBC (Pseudomonas aeruginosa [5]; CF Pseudomonas isolate NB3) | MBC (Pseudomonas aeruginosa [5]; CF Pseudomonas isolate NB4) | MBC (Pseudomonas aeruginosa [5]; CF Pseudomonas isolate NB5) | MBC (Pseudomonas aeruginosa [5]; CF Pseudomonas isolate NB6) | MBC (Pseudomonas aeruginosa [5]; CF Pseudomonas isolate NB10) | MBC (Pseudomonas aeruginosa [5]; CF Pseudomonas isolate NB11) | MBC (Pseudomonas aeruginosa [5]; CF Pseudomonas isolate NB13) | MBC (Burkholderia cenocepacia; CF Burkholderia isolate NB28b) | MBC (Acinetobacter baumannii [6]; [22]) | MBC (Acinetobacter baumannii [6]; [29]) | MBC (Acinetobacter baumannii [6]; Acinetobacter baumannii, read-out: MBC 50, 10 Acinetobacter isolates) | MBC (Acinetobacter baumannii [6]; Acinetobacter baumannii, read-out: MBC 50, Acinetobacter, each drug alone)
32 µg/mL: MIC [4, 10] | MBC [4, 18] | MIC (Pseudomonas aeruginosa [5]; CF Pseudomonas isolate NB14) | MBC (Pseudomonas aeruginosa [5]; CF Pseudomonas isolate NB17) | MIC (Burkholderia cenocepacia; CF Burkholderia isolate NB21) | MBC (Burkholderia cenocepacia; CF Burkholderia isolate NB30) | MIC (Burkholderia cenocepacia; CF Burkholderia isolate NB30)
0.25-1: MIC Range (Pseudomonas aeruginosa [2]; [8]) | MIC Range (Proteus mirabilis; [8])
0.5 µg/mL: MIC50 (Pseudomonas aeruginosa [2]; [7]) | MIC50 (Acinetobacter baumannii [3]; [7]) | MIC50 (Escherichia coli; [7]) | MIC (Pseudomonas aeruginosa [5]; CF Pseudomonas isolate NB3) | MIC (Pseudomonas aeruginosa [5]; CF Pseudomonas isolate NB4) | MIC (Pseudomonas aeruginosa [5]; CF Pseudomonas isolate NB5) | MIC (Pseudomonas aeruginosa [5]; CF Pseudomonas isolate NB6) | MIC (Pseudomonas aeruginosa [5]; CF Pseudomonas isolate NB10) | MIC (Pseudomonas aeruginosa [5]; CF Pseudomonas isolate NB12) | MIC (Pseudomonas aeruginosa [5]; CF Pseudomonas isolate NB15) | MIC (Pseudomonas aeruginosa [5]; CF Pseudomonas isolate NB20) | MBC (Acinetobacter baumannii [6]; [26]) | MIC (Acinetobacter baumannii [6]; [26]) | MIC (Acinetobacter baumannii [6]; [27])
80.0%: % susceptible (Acinetobacter baumannii [3]) | % susceptible (Escherichia coli) | % susceptible (Klebsiella pneumoniae)
20.0%: % resistant (Acinetobacter baumannii [3]) | % resistant (Escherichia coli) | % resistant (Klebsiella pneumoniae)
0.0%: % resistant (Pseudomonas aeruginosa [2]) | % resistant (Proteus mirabilis)
100.0%: % susceptible (Pseudomonas aeruginosa [2]) | % susceptible (Proteus mirabilis)
>16: MIC Range (Burkholderia cepacia; in µg/mL)
1 µg/mL: MIC50 (Proteus mirabilis; [7]) | MIC50 (Pseudomonas aeruginosa [5]) | MIC (Pseudomonas aeruginosa [5]; CF Pseudomonas isolate NB1) | MIC (Pseudomonas aeruginosa [5]; CF Pseudomonas isolate NB7) | MIC (Pseudomonas aeruginosa [5]; CF Pseudomonas isolate NB8) | MIC (Pseudomonas aeruginosa [5]; CF Pseudomonas isolate NB9) | MIC (Pseudomonas aeruginosa [5]; CF Pseudomonas isolate NB13) | MIC (Burkholderia cenocepacia; CF Burkholderia isolate NB28b) | MIC50 (Acinetobacter baumannii [6]; Acinetobacter baumannii) | MBC (Acinetobacter baumannii [6]; [21]) | MIC (Acinetobacter baumannii [6]; [21]) | MIC (Acinetobacter baumannii [6]; [22]) | MIC (Acinetobacter baumannii [6]; [28]) | MIC50 (Acinetobacter baumannii [6]; Acinetobacter, each drug alone)
>32 µg/mL: MBC 50 [4, 20] | MBC 90 [4, 20] | MIC50 [4, 20] | MIC90 [4, 20] | MBC 50 (Burkholderia cenocepacia; Burkholderia, each drug alone) | MBC 90 (Burkholderia cenocepacia; Burkholderia, each drug alone) | MIC90 (Burkholderia cenocepacia; Burkholderia, each drug alone) | MBC 90 (Acinetobacter baumannii [6]; Acinetobacter, each drug alone)
16 µg/mL: MIC [4, 18] | MIC90 (Pseudomonas aeruginosa [5]) | MBC (Pseudomonas aeruginosa [5]; CF Pseudomonas isolate NB1) | MBC (Pseudomonas aeruginosa [5]; CF Pseudomonas isolate NB16) | MIC (Pseudomonas aeruginosa [5]; CF Pseudomonas isolate NB17) | MIC (Pseudomonas aeruginosa [5]; CF Pseudomonas isolate NB18) | MBC (Pseudomonas aeruginosa [5]; CF Pseudomonas isolate NB19) | MIC90 (Acinetobacter baumannii [6]; Acinetobacter baumannii) | MIC (Acinetobacter baumannii [6]; [24]) | MBC (Acinetobacter baumannii [6]; [25]) | MBC (Acinetobacter baumannii [6]; [28]) | MIC90 (Acinetobacter baumannii [6]; Acinetobacter, each drug alone)
> 32 µg/mL: MBC [4, 9] | MIC [4, 9] | MBC [4, 10] | MBC [4, 11] | MIC [4, 11] | MBC [4, 12] | MIC [4, 12] | MBC [4, 13] | MIC [4, 13] | MBC [4, 14] | MIC [4, 14] | MBC [4, 15] | MIC [4, 15] | MBC [4, 16] | MIC [4, 16] | MBC [4, 17] | MIC [4, 17] | MBC [4, 19] | MIC [4, 19] | MBC (Pseudomonas aeruginosa [5]; CF Pseudomonas isolate NB14) | MBC (Pseudomonas aeruginosa [5]; CF Pseudomonas isolate NB18) | MBC (Burkholderia cenocepacia; CF Burkholderia isolate NB21) | MBC (Burkholderia cenocepacia; CF Burkholderia isolate NB22) | MIC (Burkholderia cenocepacia; CF Burkholderia isolate NB22) | MBC (Burkholderia cenocepacia; CF Burkholderia isolate NB23) | MIC (Burkholderia cenocepacia; CF Burkholderia isolate NB23) | MBC (Burkholderia cenocepacia; CF Burkholderia isolate NB24) | MIC (Burkholderia cenocepacia; CF Burkholderia isolate NB24) | MBC (Burkholderia cenocepacia; CF Burkholderia isolate NB25) | MIC (Burkholderia cenocepacia; CF Burkholderia isolate NB25) | MBC (Burkholderia cenocepacia; CF Burkholderia isolate NB26) | MIC (Burkholderia cenocepacia; CF Burkholderia isolate NB26) | MBC (Burkholderia cenocepacia; CF Burkholderia isolate NB27) | MIC (Burkholderia cenocepacia; CF Burkholderia isolate NB27) | MBC (Burkholderia cenocepacia; CF Burkholderia isolate NB29) | MIC (Burkholderia cenocepacia; CF Burkholderia isolate NB29) | MBC (Acinetobacter baumannii [6]; [24]) | MBC (Acinetobacter baumannii [6]; [30]) | MIC (Acinetobacter baumannii [6]; [30])
2 µg/mL: MBC (Pseudomonas aeruginosa [5]; CF Pseudomonas isolate NB2) | MIC (Pseudomonas aeruginosa [5]; CF Pseudomonas isolate NB11) | MIC (Pseudomonas aeruginosa [5]; CF Pseudomonas isolate NB16) | MIC (Pseudomonas aeruginosa [5]; CF Pseudomonas isolate NB19) | MIC (Acinetobacter baumannii [6]; [23]) | MIC (Acinetobacter baumannii [6]; [25]) | MBC (Acinetobacter baumannii [6]; [27]) | MIC (Acinetobacter baumannii [6]; [29])
0.25 µg/mL: MIC (Pseudomonas aeruginosa [5]; CF Pseudomonas isolate NB2) | MIC50 (Klebsiella pneumoniae; [7])
> 16 µg/mL: MIC50 (Burkholderia cepacia) | MIC50 [1] | MBC (Pseudomonas aeruginosa [5]; CF Pseudomonas isolate NB7) | MBC (Pseudomonas aeruginosa [5]; read-out: MBC 90, 20 CF Pseudomonas isolates) | MBC (Pseudomonas aeruginosa [5]; read-out: MBC 90, second MBC 90 line of the summary, Stenotrophomonas, values equal those of the CF Pseudomonas isolates)
